The numbers were not newly measured in the CATMoS acute toxicity set (Mansouri et al. 2021), which cites them from elsewhere.

Several values for one entry are separate records, joined by “and”; a condition that tells them apart may be missing. Equal values may be shown once.

The nature of the data set: rat acute oral toxicity. The following applies: in vivo.
With `Clc1ccc([Si]23OCCN(CCO2)CCO3)cc1`, the LD50 is 520 mg/kg.
On to `CNC(C)C1CCC(N)C(OC2C(N)CC(N)C(OC3OCC(C)(O)C(NC)C3O)C2O)O1` (stereo not given), for which the LD50 was 6600 mg/kg.
Regarding `ClCc1cccc2ccccc12`, the LD50 is 890 mg/kg.
Consider `CC(c1ccc(OC#N)cc1)c1ccc(OC#N)cc1`, for which the LD50 was 1000 mg/kg.
Consider `Clc1cccc2ccccc12`, for which the LD50 is 2200 mg/kg and 1540 mg/kg.
As to `CNC(=O)Oc1c(C(C)C)ccc(C)c1N(C)C`, the LD50 was 67 mg/kg.
In the case of `O=C/C=C/O`, the LD50 was 824 mg/kg.
`Cc1ccc(C(=O)c2ccc(CC(=O)NCCn3cnc4c3c(=O)n(C)c(=O)n4C)n2C)cc1`: the LD50 was 1200 mg/kg.
`CC(CC(=O)c1ccc(-c2ccc(F)cc2F)cc1)C(=O)O` (stereo not given): the LD50 is 134 mg/kg.
Turning to `CCOP(=O)(OCC)OC(=C(Br)Br)c1ccc(Cl)cc1Cl`, the LD50 is 78.1 mg/kg.
Take `CCCOP(=S)(OC)SCN1C(=O)c2ccccc2C1=O` (stereo not given): the LD50 is 90 mg/kg.
Consider `CN(C)C(=O)CCCOC(=O)C(C)(C)Oc1ccc(Cl)cc1`, for which the LD50 is 2480 mg/kg.
As for `CCC(=O)OCCc1ccccc1`, the LD50 was 4000 mg/kg.
As for `N#Cc1sc2c(=O)c3ccccc3c(=O)c=2sc1C#N`, the LD50 was 638 mg/kg.
For the molecule `CCCOC(C1=NCCN1)c1ccccc1` (stereo not given), the LD50 is 350 mg/kg.
Regarding `CCCCCCCCCCCCCCCC[n+]1ccccc1`, the LD50 is 200 mg/kg and 475 mg/kg.
As for `CCOP(=S)(OCC)SCSc1ccc(Cl)c(Cl)c1`, the LD50 was 89 mg/kg.
Consider `O=S(=O)(Cl)CCl`, for which the LD50 is 372 mg/kg.
Take `CCCCCCCCCC(=O)OCCN1CCN(CCCN2c3ccccc3Sc3ccc(C(F)(F)F)cc32)CC1`: the LD50 is 19 mg/kg.
For `CCCCCCCCCCCCCCOCCOCCOCCOCCOCCOCCOCCO`, the LD50 is 2600 mg/kg.
For `OB(O)c1ccccc1`, the LD50 is 740 mg/kg.
On to `CC1CNCC(C)O1` (stereo not given), for which the LD50 was 2830 mg/kg.
Take `CON(C)C(=O)Nc1ccc(Br)c(Cl)c1`: the LD50 was 2150 mg/kg.
On to `CNC(=O)CSP(=O)(OC)SC` (stereo not given), for which the LD50 is 100 mg/kg.
With `Cc1cc(OC(=O)N(C)C)nn1C(=O)N(C)C`, the LD50 was 25 mg/kg.
Regarding `CCCCCCCCCCCC[N+](C)(C)CC(O)CCl` (stereo not given), the LD50 was 1070 mg/kg.
Turning to `Nc1cc(Cl)c(N)c(Cl)c1`, the LD50 was 700 mg/kg.
As for `COP(=O)(OC)OC(C)=CC(=O)Oc1ccc(C)cc1`, the LD50 was 176 mg/kg.
With `O=S(=O)(Cl)c1ccccc1Cl`, the median lethal dose (LD50) was 7500 mg/kg.
As to `O=[N+]([O-])c1ccc(/C=N/NC(=S)N2CCCCC2)o1`, the LD50 was 750 mg/kg.
As for `Nc1ccc2c(c1)[nH]c1ccccc12`, the LD50 was 964 mg/kg.
Turning to `CCOP(=O)(Oc1ccc([N+](=O)[O-])cc1)SCC` (stereo not given), the LD50 was 17.9 mg/kg.
With `CCN(Cc1ccncc1)C(=O)C(CO)c1ccccc1` (stereo not given), the LD50 is 865 mg/kg.
Take `Nc1nc(N)nc(-c2cc(Cl)ccc2Cl)n1`: the LD50 was 2900 mg/kg.
As to `CC(Cl)COP(=O)(OCC(C)Cl)OCC(C)Cl` (stereo not given), the LD50 is 1020 mg/kg.
Regarding `COP(=S)(OC)Oc1ccc(S(C)=O)c(C)c1` (stereo not given), the LD50 was 125 mg/kg.
`OCCNCC(O)CNCCO`: the LD50 is 7200 mg/kg.
`CC(C)OC(=O)c1cncc(C(=O)OC(C)C)c1`: the LD50 is 5230 mg/kg.
On to `CCC(=O)O[C@@H]1CC(=O)O[C@H](C)C/C=C/C=C/[C@H](O)[C@H](C)C[C@H](CC=O)[C@H](O[C@@H]2O[C@H](C)[C@@H](O[C@H]3C[C@@](C)(O)[C@@H](OC(=O)CC)[C@H](C)O3)[C@H](N(C)C)[C@H]2O)[C@H]1OC`, for which the LD50 was 9600 mg/kg.
For `COC(C)(C)CCCC(C)C(C)O` (stereo not given), the LD50 was 4490 mg/kg.
Take `CCCCCCCCCCCCCC[n+]1ccc(C)cc1`: the LD50 was 250 mg/kg.
`O=CCC=O`: the LD50 is 632 mg/kg.
Regarding `Nc1ccc2[nH]c3ccc(N)cc3c2c1`, the LD50 was 1040 mg/kg.
As for `NC(=O)c1ccc(Cl)c(N)c1`, the LD50 was 900 mg/kg.
With `CCOC(=O)C=C(C)C`, the LD50 was 11600 mg/kg.
With `CC(=O)C=CC1C(C)C=C(C)CC1C` (stereo not given), the LD50 is 5200 mg/kg.
`CCCCCCc1ccccc1O`: the LD50 was 1300 mg/kg.
In the case of `CN(C)C(=S)SSC(=S)NCCNC(=S)SSC(=S)N(C)C`, the LD50 was 3000 mg/kg.
On to `CCN(CC)C(=S)S`, for which the LD50 is 1000 mg/kg.
As to `CCc1nc(N)nc(N)c1-c1ccccc1`, the LD50 is 126 mg/kg.
With `CCCN(CCC)CCc1cccc2c1CC(=O)N2`, the LD50 is 396 mg/kg and 862 mg/kg.
As for `CC(C)OC(Cl)=C(Cl)C(Cl)=C(Cl)Cl`, the median lethal dose (LD50) was 1210 mg/kg.
`CC(=O)OCCC(Cl)C(C)=O` (stereo not given): the LD50 is 2050 mg/kg.
On to `NC(=S)NC(N)=S`, for which the LD50 was 5 mg/kg.
Take `CC(O)CC(C)O` (stereo not given): the LD50 was 6860 mg/kg.
As for `CCC(=O)OCc1ccc(OC)cc1`, the LD50 was 3330 mg/kg.
With `C[n+]1ccc(-c2ccccc2)cc1`, the LD50 is 35 mg/kg.
Take `C/C=C/C=C/C(=O)O`: the LD50 is 7360 mg/kg and 4340 mg/kg and 7160 mg/kg.
On to `CNC(=O)c1cc(Cl)ccn1`, for which the LD50 is 500 mg/kg.
Regarding `C[N+](C)(C)C`, the LD50 is 77 mg/kg and 50 mg/kg.

Broadly, the LD50 is the dose at which mortality reaches 50%.
